{"source": "patent US9909104B2", "about": "“Generating definitive endoderm and pancreatic progenitor cells” (The J. David Gladstone Institutes, a testamentary trust …, priority 2013, dated 2018)", "key": {"[1]": {"tested_on": "histone deacetylases (HDACs)", "details": "isoform not stated; read-out: IC50 (histone deacetylase); cited from earlier work"}, "[2]": {"tested_on": "definitive endoderm-like cells (DELCs)", "assay": "Induction of DELCs into Pdx1+/Nkx6.1+ pancreatic progenitor-like cells (step III)", "type": "cell-based, mouse", "details": "screen of 400 compounds, confirmed in larger-well cultures", "description": "At the end of treatment, lineage specific markers were analyzed by immunostaining and/or real-time PCR.\nPrimary antibodies used were Sox17 (R&D), Foxa2 (Millipore), Pdx1 (R&D), Hnf6 (Santa Cruz), Pax6 (Covance), Sox9 (Santa Cruz), Nkx6.1 (Developmental Studies Hybridoma Bank), Insulin (Dako), Glucagon (Sigma), Somatostatin (Abcam), Amylase (Abcam), and CK19 (Abcam). Nuclei were visualized by DAPI (Sigma-Aldrich) staining Images were captured using a Nikon Eclipse TE2000-U microscope.\nAn available drug collection of 400 compounds in the 48-well format was screened to identity small molecules that induce high percentages of Pdx1^+/Nkx6.1^+ cells in DELC populations. Med-III medium (DMEM supplemented with 1×B27, 2 mM Glutamax) was used as the basal condition and double staining of Pdx1 and Nkx6.1 at 4 days post-induction was used as the readout.\nInduction of Pdx1 and Nkx6.1 expression by small molecules is referred herein to the “third step” (step III) of pancreatic induction."}, "[3]": {"tested_on": "Human foreskin fibroblasts", "assay": "Conversion of human fibroblasts into definitive endodermal progenitor (cDE) colonies"}, "[4]": {"tested_on": "HDAC activity in HeLa extracts", "details": "read-out: IC50 for inhibition of HDAC activity; cited from earlier work"}, "cPE cells": {"tested_on": "cPE cells", "assay": "Maturation of cPE cells into C-peptide positive beta-like cells in vitro", "type": "cell-based, human", "details": "supplemented individually to basal pancreatic differentiation media", "source_text": "Full maturation towards glucose responsive cells is optimally illustrated by transplantation of in vitro differentiated pancreas endoderm progenitor cells into immune compromised mice. […] While C-peptide positive cells expressing high levels of PDX1 were consistently observed after 10-14 days in culture (FIG. 11B), the relatively low number of cells (˜0.5%) indicated further optimization of conditions may improve the frequency of conversion to functional beta-like cells. Chemical compounds able to promote differentiation of definitive endoderm (Borowiak et al. (2009)) and PDX1^+ progenitors (Chen et al. (2009) have been identified previously. However, molecules directing the final steps of differentiation into beta-like cells have not been uncovered, likely due to difficulties in generating and maintaining sufficient numbers of differentiation-competent pancreatic endodermal progenitor cells.\nA chemical screen was performed with the intent of identifying factors that would result in the more efficient development of C-peptide positive cells from expanded cPE cells."}, "[5]": {"tested_on": "Dox-inducible secondary mouse embryonic fibroblasts (MEFs)", "assay": "Direct reprogramming of secondary MEFs into definitive endoderm-like cells (Sox17/Foxa2)", "type": "cell-based", "details": "1 μM Bix-01294 D0-D6; 280 μM pVc D0-D12", "description": "Dox-inducible secondary mouse embryonic fibroblasts (MEFs) (cells at passage 3-4 were regularly used) were plated on Matrigel-coated culture dishes at a cell density of 1×10^4 cells/cm^2. Cells were cultured in MEF medium (Dulbecco's modified Eagle's medium with 10% fetal bovine serum and 2 mM Glutamax) for an additional day. The medium was then changed to Med I (Knock-out DMEM with 10% knock-out serum replacer, 5% FBS, 2 mM Glutamax, 0.1 mM non-essential amino acids (NEAA), and 0.055 mM β-mercaptoethanol) supplemented with 4 μg/ml Dox, 50 ng/ml Activin A and 1 mM LiCl for the indicated time. […] All reagents were purchased from Invitrogen if not specified, and all cytokines were from R&D Systems. […]\nTotal RNA was extracted using the RNeasy Plus Mini Kit in combination with QIAshredder (Qiagen). […] Expression of pluripotency and lineage-specific marker genes was analyzed by real-time PCR with iQ SYBR Green Supermix (Bio-Rad). […]\nTo test this hypothesis, conditions were evaluated in which definitive endoderm induction factors (Activin/Li) were added to fibroblasts either after (Approach-I) or during (Approach II) iPSC factor expression, using Sox17 and Foxa2 expression as a measure of DELC induction (FIG. 1A)."}, "secondary MEF cells": {"tested_on": "secondary MEF cells", "assay": "Small molecules in first/second reprogramming steps, Pdx1/Nkx6.1 double staining on day 16", "type": "cell-based, mouse", "details": "1 μM Bix-01294 D0 to D6; 280 μM pVc D0 to D12; readout day 16", "method": "The inventors then hypothesized that overlapping lineage-specific patterning conditions based on small molecules with early reprogramming would enhance pancreatic induction. To this end, further screens of the inventors' drug collection were performed during the first- and second-step inductions, with double staining of Pdx1 and Nkx6.1 at the end of the third step (day 16) as a readout. […] In particular, 1 μM Bix-01294 (a G9a histone methyltransferase inhibitor), when added from D0 to D6, and 280 μM pVc, when added from D0 to D12, increased the number of Pdx1+/Nkx6.1+ colonies to about 3 fold and 4 fold respectively (FIG. 4D-4E)."}, "[6]": {"tested_on": "pancreatic progenitor-like cells (PPLCs)", "assay": "Maturation of PPLCs into pancreatic-like cells (step IV, day 25)", "type": "cell-based, mouse", "details": "5 μM SB203580 or 280 μM pVc used individually, D16-D25, day 25", "method": "The pancreatic progenitor-like cells generated as described herein were treated with Med-IV medium containing laminin, nicotinamide, and B27 etc. as previously reported (Schroeder et al., 2006) to determine whether those PPLCs can be further differentiated into mature pancreatic like cells. After 9 days of culture in this medium, a small population (about 0.5%) of insulin and C-peptide double-positive cells was detected.\nTo improve efficiency of pancreatic maturation, the inventors' drug collection was further screened in a “fourth” step (step IV) to identify compounds that increase the percentage of cells that express insulin and Pdx1 on day 25."}, "γ-secretase": {"molecular_target": "γ-secretase", "details": "total β-amyloid; cited from earlier work"}, "presenilase activity": {"tested_on": "presenilase activity", "details": "At higher concentrations (20-4000/1); cited from earlier work"}, "SAPK2/p38": {"molecular_target": "SAPK2/p38 (Homo sapiens, UniProt Q16539)", "sequence (Q16539 whole entry)": "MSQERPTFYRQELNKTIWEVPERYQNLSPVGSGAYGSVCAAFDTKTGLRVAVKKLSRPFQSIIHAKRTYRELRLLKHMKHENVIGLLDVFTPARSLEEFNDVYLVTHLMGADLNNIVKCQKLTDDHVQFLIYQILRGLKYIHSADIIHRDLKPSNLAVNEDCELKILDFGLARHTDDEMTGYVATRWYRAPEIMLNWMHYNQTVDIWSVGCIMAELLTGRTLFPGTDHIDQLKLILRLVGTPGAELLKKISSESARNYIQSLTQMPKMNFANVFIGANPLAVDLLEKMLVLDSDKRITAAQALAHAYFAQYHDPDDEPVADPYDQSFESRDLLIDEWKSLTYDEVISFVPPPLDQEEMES", "details": "CK1 and ALK5 inhibitor; cited from earlier work"}}}
{"compound": "CC(/C=C/C(=O)NO)=C\\[C@@H](C)C(=O)c1ccc(N(C)C)cc1", "note": "[Trichostatin A, (R,2E,4E)-6-(4-(dimethylamino)benzoyl)-N-hydroxy-4-methylhepta-2,4-dienamide]", "values": [{"measurement": "IC50", "setting": "[1]", "result": "~0.0018", "unit": "µM"}]}
{"compound": "CC1NC(=O)C(C)NC(=O)C2CCCN2C(=O)C(CCCCCCC(=O)C2CO2)NC1=O", "note": "[HC Toxin, (6R,9S,14aR)-3,6R-dimethyl-9S-(7-((S)-oxiran-2-yl)-7-oxoheptyl)decahydropyrrolo[1,2-a][1,4,7,10]tetraazacyclododecine-1,4,7,10-tetranone]", "values": [{"measurement": "IC50", "setting": "[1]", "result": 0.03, "unit": "µM"}]}
{"compound": "Cc1c(C(=O)Nc2ccc(N3C[C@@H](C)O[C@@H](C)C3)nc2)cccc1-c1ccc(OC(F)(F)F)cc1", "note": "[LDE225]", "values": [{"measurement": "hit confirmation: increase of Pdx1 and/or Nkx6.1 expression", "setting": "[2]", "result": "Confirmed hits"}]}
{"compound": "CCNC(=O)[C@H]1O[C@@H](n2cnc3c(N)ncnc32)C(O)C1O", "note": "(stereo partly drawn) [NECA, 5′-N-ethylcarboxamidoadenosine]", "values": [{"measurement": "further increase of conversion rate over improved condition (NaB, Par, RG)", "setting": "[3]; FOXA2 positive colonies day 28", "result": 2, "unit": "fold"}, {"measurement": "increase over the basal protocol", "setting": "[3]; NECA together with NaB, Par, RG108", "result": 5, "unit": "fold"}, {"measurement": "FOXA2 and SOX17 double-positive cDE colonies from 400,000 human fibroblasts", "setting": "[3]; optimized condition (NaB, Par, RG108, NECA)", "result": "approximately fifty"}]}
{"compound": "CC1(C)NC(=O)C(CCCCCC(=O)[C@H]2CO2)NC(=O)C2CCCN2C(=O)[C@@H](Cc2ccccc2)NC1=O", "note": "(stereo partly drawn) [Chlamydocin, (3R)-3-benzyl-6,6-dimethyl-9-[6-[(2R)-oxiran-2-yl]-6-oxohexyl]-1,4,7,10-tetrazabicyclo[10.3.0]pentadecane-2,5,8,11-tetrone]", "values": [{"measurement": "IC50", "setting": "[1]", "result": "~0.00015", "unit": "µM"}]}
{"compound": "Cc1cccc(-c2nn(C(=S)Nc3ccccc3)cc2-c2ccnc3ccccc23)n1", "note": "[A83-01, 3-(6-Methyl-2-pyridinyl)-N-phenyl-4-(4-quinolinyl)-1H-pyrazole-1-carbothioamide]", "values": [{"measurement": "hit confirmation: increase of Pdx1 and/or Nkx6.1 expression", "setting": "[2]", "result": "Confirmed hits"}]}
{"compound": "Nc1ccccc1NC(=O)CCCCCCC(=O)Nc1ccccc1", "note": "[BML-210, N1-(2-aminophenyl)-N8-phenyl-octanediamide]", "values": [{"measurement": "IC50", "setting": "[4]", "result": "~80", "unit": "µM"}]}
{"compound": "COC(=O)C1=C(C)NC(C)=C([N+](=O)[O-])C1c1ccccc1C(F)(F)F", "note": "(stereo not drawn) [BayK-8644, 3-pyridinecarboxylic acid, 1,4-dihydro-2,6-dimethyl-5-nitro-4-(2-(trifluoromethyl)phenyl), methyl ester]", "values": [{"measurement": "effect on percentage of C-peptide positive cells", "setting": "cPE cells", "result": "effective in increasing"}]}
{"compound": "O=C1O[C@H]([C@@H](O)CO)C(O)=C1O", "note": "[Vitamin C]", "values": [{"measurement": "effect on percentage of C-peptide positive cells", "setting": "cPE cells", "result": "effective in increasing"}]}
{"compound": "Nc1ccccc1NC(=O)c1ccc(CNc2nccc(-c3cccnc3)n2)cc1", "note": "[MGCD0103, N-(2-aminophenyl)-4-[[(4-pyridin-3-ylpyrimidin-2-yl)amino]methyl]benzamide]", "values": [{"measurement": "IC50", "setting": "[1]", "result": "~0.1", "unit": "µM"}]}
{"compound": "Nc1ccccc1NC(=O)c1ccc(CNC(=O)OCc2cccnc2)cc1", "note": "[MS-27-275, pyridin-3-ylmethyl-N-[[4-[(2-aminophenyl)carbamoyl]phenyl]methyl]carbamate]", "values": [{"measurement": "IC50", "setting": "[1]", "result": "0.1 to 1", "unit": "µM"}]}
{"compound": "2-phospho-L-ascorbic acid trisodium salt [pVc]", "values": [{"measurement": "numbers of Sox17 and Foxa2 single positive and double positive cells", "setting": "[5]", "result": "no significant influence"}, {"measurement": "hit confirmation: increase of Pdx1 and/or Nkx6.1 expression", "setting": "[2]", "result": "Confirmed hits"}, {"measurement": "number of Pdx1+/Nkx6.1+ colonies", "setting": "secondary MEF cells", "result": "~4", "unit": "fold"}, {"measurement": "number of insulin+/Pdx1+ double-positive cells", "setting": "[6]", "result": "significantly increased"}]}
{"compound": "C[C@H](NC(=O)Cc1cc(F)cc(F)c1)C(=O)N[C@H]1N=C(c2ccccc2)c2ccccc2N(C)C1=O", "note": "[Compound E]", "values": [{"measurement": "IC50", "setting": "γ-secretase", "result": 0.0003, "unit": "µM"}, {"measurement": "effect on presenilase activity", "setting": "presenilase activity", "result": "only weakly affects"}, {"measurement": "effect on percentage of C-peptide positive cells", "setting": "cPE cells", "result": "effective in increasing"}]}
{"compound": "NC(=O)c1ccc(-c2nc(-c3ccc4c(c3)OCCO4)c(-c3ccccn3)[nH]2)cc1", "note": "[D 4476, 4-[4-(2,3-Dihydro-1,4-benzodioxin-6-yl)-5-(2-pyridinyl)-IH-imidazol-2-yl]benzamide]", "values": [{"measurement": "selectivity over SAPK2/p38", "setting": "SAPK2/p38", "result": "greater than 20 fold"}]}
{"compound": "COc1cc2nc(N3CCCN(C)CC3)nc(NC3CCN(Cc4ccccc4)CC3)c2cc1OC", "note": "[Bix-01294]", "values": [{"measurement": "numbers of Sox17 and Foxa2 single positive and double positive cells", "setting": "[5]", "result": "no significant influence"}, {"measurement": "number of Pdx1+/Nkx6.1+ colonies", "setting": "secondary MEF cells", "result": "about 3 fold"}]}
{"compound": "C[S+]([O-])c1ccc(-c2nc(-c3ccc(F)cc3)c(-c3ccncc3)[nH]2)cc1", "note": "(stereo not drawn) [SB203580, 4-(4-fluorophenyl)-2-(4-methylsulfinylphenyl)-5-(4-pyridyl)-1H-imidazole]", "values": [{"measurement": "number of insulin+/Pdx1+ double-positive cells", "setting": "[6]", "result": "significantly increased"}]}
